Laboratory results taken from US10035775B2, “Compositions for the treatment of fibrosis and fibrosis-related conditions” (VECTUS BIOSYSTEMS LIMITED, priority 2015, dated 2018).

What was measured:
SHR [1] = assay: Fat accumulation in the liver in SHR on high fat diet; format: in vivo, rat; settings: 500 pmol/kg/min for 4 weeks, compared to 18 week controls, FIG. 20, p<0.05
Excerpt: (§1) Fourteen week old SHR on a high fat diet (Glen Forrest Stockfeeders) were randomly assigned to test compound drinking solution (500 pmol/kg/min test compound in 10% ethanol in deionised distilled water) or control drinking solution (10% ethanol in deionised distilled water). After 4 weeks, rats were anaesthetised and blood samples were taken for analysis of plasma aminotransferase (AST) levels and livers were harvested. To quantitate tissue fibrosis and/or fat content, tissue slices≤3 mm thick were fixed in 10% buffered formalin for 24 hours, processed and embedded in paraffin. Three micron transverse sections were stained using Masson's trichrome stain. A minimum of 20 random fields at magnification×20 from transverse sections (5 at each of 2 levels) were digitized and the degree of fibrosis determined as a percent of field area of each digitized image using Image-Pro Plus V.7 (Media Cybernetics, Bethesda, Md., USA) then averaged to determine the level of fibrosis and/or fat content for each rat.

SHR [2] = assay: Masson's tri-chrome stained sections of portal tracts (liver tissue architecture); format: in vivo, rat; settings: treated rats versus control, FIG. 18
Excerpt: as §1

[3] = system: bovine aortic endothelial cells; assay: xCELLigence cellular impedance (cell index) in bovine aortic endothelial cells; format: cell-based; settings: 62.5 μM, 125 μM or 250 μM, measured for 3 hours, FIG. 13
Excerpt: The xCELLigence SP system (Roche) was used to measure changes in cellular impedance (cell index) following the treatment of bovine aortic endothelial cells (European Collection of Cell Cultures) with test compound. In this in vitro cell based experimental system a negative impedance profile correlates with blood pressure reduction in rats—a decrease in impedance is associated with vasodilatation and an increase in impedance is associated with vasoconstriction (Stallaert W, Dorn J F, van der Westhuizen E, Audet M & Bouvier M. Impedance responses reveal β-adrenergic signaling […] and allow classification of ligands with distinct signalling profiles PLoS ONE 2012; 7(1):e29420, doi:10.1371/journal.pone.0029420).
Briefly, 50 μl of cell culture medium (DMEM low glucose supplemented with 15% fetal bovine serum at 37° C.) was added to each well of an E-Plate 96 (Roche), and the background impedance in each well was measured. 50 μl of bovine aortic endothelial cell suspension (10,000 cells/well) was then added to the appropriate wells of the E-Plate 96. Cell index was monitored for each well of the E-Plate 96 in RTCA SP Station within the cell culture incubator. After overnight incubation for 16-20 hours at 5% CO2 and 95% humidity, 100 μl of test compound solution (test compounds were prepared in DMSO and diluted with cell culture medium to a concentration of 62.5 μM, 125 μM or 250 μM of test compound with a final DMSO concentration of 0.25%) was added to the appropriate wells of the E-Plate 96 and cell index values were measured immediately following compound treatment every 20 seconds for 3 hours. Cell index value is baseline-corrected by subtracting the cell index of vehicle-treated cells and normalized by dividing by the cell index at the time point immediately before compound addition. Baseline normalized cell index as a function of time is plotted using Roche RTCA software.

SHR [4] = assay: Hepatic fibrosis in SHR on high fat diet; format: in vivo, rat; settings: 10% ethanol drinking solution, 500 pmol/kg/min for 6 weeks, compared to controls, FIG. 17
Procedure: as §1, with “After 4 weeks, rats were anaesthetised and blood samples were taken for analysis of plasma aminotransferase (AST) levels and livers were harvested.” left out

[5] = system: Human (HPCT-wt-05) renal proximal tubule cells; assay: Cisplatin induced cell death, human renal proximal tubule cells (WST-8/CCK-8); format: cell-based; settings: human renal proximal tubular cells; cisplatin 5 μg/ml; 32 μM or 63 μM of compound; 24 hours; FIG. 14
Procedure: (§2) Human (HPCT-wt-05) and rat (NRK-52E) renal proximal tubule cells grown in (Keratinocyte Medium II+Keratinocyte Growth Supplement+5 ng/ml human recombinant epidermal growth factor+5% FBS+2 mM glutamine or DMEM+10% FBS+1% NEAA+2 mM glutamine respectively) were placed in 96 well plates at 10,000 cells/well and incubated at 37° C. with 5% CO2 overnight. Test compounds at concentrations of 32 μM or 63 μM were incubated with human or rat renal proximal tubule cells for 2 hours at 37° C. and 5% CO2. Cis-diamminedichloroplatinum[…] (cisplatin) was then added at a concentration of 5 μg/ml for human cells and 12.5 μg/ml for rat cells. Each cell population was then incubated for 24 hours at 37° C. with 5% CO2. Test compound A32 was maintained at its original concentrations. To assay the cytotoxic effects of cisplatin on the human and rat renal proximal tubule cells a highly water-soluble tetrazolium salt, WST-8, which is reduced by dehydrogenases in cells to produce formazan, a water-soluble, yellow-coloured indicator dye was used following the manufacturer's instructions (specifically the Cell Count Kit-8 (CCK-8) assay from Sigma). Plate absorbance of the WST-8 (CCK-8) reagent was then measured at 450 nm using a Thermo Scientific Multiskan EX plate reader.

SHR [6] = assay: Plasma aminotransferase (AST) levels in SHR on high fat diet; format: in vivo, rat; settings: 10% ethanol drinking solution, compared to controls, FIG. 21, p<0.025
Procedure: Fourteen week old SHR on a high fat diet (Glen Forrest Stockfeeders) were randomly assigned to test compound drinking solution (500 pmol/kg/min test compound in 10% ethanol in deionised distilled water) or control drinking solution (10% ethanol in deionised distilled water). After 4 weeks, rats were anaesthetised and blood samples were taken for analysis of plasma aminotransferase (AST) levels and livers were harvested. Plasma AST levels were measured using a RefloVET Plus (Roche) machine using consumable strips with magnetic assay identifiers recognized by the machine. A calibration standard was used in the machine prior to each use and the device was operated according to the manufacturer's instructions. Results are presented as international units per liter (IU/L).

SHR [7] = assay: Myocardial fibrosis in SHR on 2.2% salt diet; format: in vivo, rat; settings: 5% ethanol drinking solution, 500 pmol/kg/min for 4 weeks, compared to 14 and 18 week controls, FIG. 16
Excerpt: (§3) Fourteen week old SHR on a 2.2% salt diet (Glen Forrest Stockfeeders) were randomly assigned to zero time control, test compound treatment (500 pmol/kg/min) in the drinking solution or control drinking solution (5% ethanol in deionised distilled water (n=5 each group). The rats assigned to zero time control group (14 weeks old rats) were anaesthetised and had their kidneys and heart harvested while rats assigned to control and test compound treatment were weighed twice weekly and had their drinking solution intake monitored to allow adjustment of the test compound concentration in the drinking solution to maintain a constant dose over the 4-week study period (18 weeks old rats). At the completion of the study period, rats were anaesthetised and had their kidneys and heart harvested. To quantitate tissue fibrosis and/or fat content, tissue slices≤3 mm thick were fixed in 10% buffered formalin for 24 hours, processed and embedded in paraffin. Three micron transverse sections were stained using Masson's trichrome stain. A minimum of 20 random fields at magnification×20 from transverse sections (5 at each of 2 levels) were digitized and the degree of fibrosis determined as a percent of field area of each digitized image using Image-Pro Plus V.7 (Media Cybernetics, Bethesda, Md., USA) then averaged to determine the level of fibrosis and/or fat content for each rat.

SHR [8] = assay: Masson's tri-chrome stained sections of heart tissue (tissue architecture); format: in vivo, rat; settings: treated rats versus control, FIG. 19
Excerpt: as §3

[9] = system: rat (NRK-52E) renal proximal tubule cells; assay: Cisplatin induced cell death, rat renal proximal tubule cells (WST-8/CCK-8); format: cell-based; settings: rat renal proximal tubular cells; cisplatin 12.5 μg/ml; 32 μM or 63 μM of compound; 24 hours; FIG. 14
Procedure: as §2

SHR [10] = assay: Interstitial fibrosis in the kidney in SHR on 2.2% salt diet; format: in vivo, rat; settings: 5% ethanol drinking solution, 500 pmol/kg/min for 4 weeks, compared to 18 week controls, FIG. 15
Excerpt: as §3

| Compound | Tissue architecture in portal tract sections (SHR [2]) | Cell impedance response (baseline normalized cell index) [3] | Hepatic fibrosis (SHR [4]) | further results |
| --- | --- | --- | --- | --- |
| NOCCc1cc(-c2ccccc2)ccc1-c1cccc(O)c1 [A56, 2′-[2-(Aminooxy)ethyl]-1,1′:4′,1″-terphenyl-3-ol] | normal tissue architecture has been restored | Negative impedance responses |  | Fat in the liver (SHR [1]): reduced |
| O=C1NCC/C1=C\c1cc(-c2ccccc2)ccc1-c1cccc(O)c1 [A27] | normal tissue architecture has been restored | Negative impedance responses | decreased | Fat in the liver (SHR [1]): reduced |
| O=C1c2ccccc2C(=O)N1OCCc1cc(-c2ccccc2)ccc1-c1cccc(O)c1 [A56g, 2-[2-(3-Hydroxy-1,1′:4′,1″-terphenyl-2′-yl)ethoxy]-1H-isoindole-1,3(2H)-dione] |  | Negative impedance responses |  |  |
| O=C1CC(Cc2cc(-c3ccccc3)ccc2-c2cccc(O)c2)C(=O)N1 (stereo not drawn) [A30, 3-[(3-Hydroxy-1,1′:4′,1″-terphenyl-2′-yl)methyl]pyrrolidine-2,5-dione] |  | Negative impedance responses |  |  |
| O=C1NCCC1Cc1cc(-c2ccccc2)ccc1-c1cccc(O)c1 (stereo not drawn) [A26] |  | Negative impedance responses |  |  |
| NC(CCc1cc(-c2ccccc2)ccc1-c1cccc(O)c1)C(F)(F)F (stereo not drawn) [A6, 2′-(3-Amino-4,4,4-trifluorobutyl)-1,1′:4′,1″-terphenyl-3-ol] | normal tissue architecture has been restored | Negative impedance responses | decreased |  |
| O=C(O)Cc1cc(-c2ccccc2)ccc1-c1cccc(O)c1 [A56k, (3-Hydroxy-1,1′:4′,1″-terphenyl-2′-yl)acetic acid] |  | Negative impedance responses |  |  |
| Nc1nocc1Cc1cc(-c2ccccc2)ccc1-c1cccc(O)c1 [A35] |  | Negative impedance responses |  |  |
| OCc1cc(-c2ccccc2)ccc1-c1cccc(O)c1 [A81] |  | Negative impedance responses |  |  |
| O=C1NC(=O)C(Cc2cc(-c3ccccc3)ccc2-c2cccc(O)c2)N1 (stereo not drawn) [A32, 5-((3-Hydroxy-[1,1′:4′,1″-terphenyl]-2′-yl)methyl)imidazolidine-2,4-dione] | normal tissue architecture has been restored | Negative impedance responses | decreased | Cisplatin induced cell death [5]: decreased; Plasma AST levels (SHR [6]): decreased; Myocardial fibrosis (SHR [7]): decreased; Fat in the liver (SHR [1]): reduced; Fibrous tissue and tissue architecture in heart sections (SHR [8]): minimal fibrous tissue is present and normal tissue architecture has been restored; Cisplatin induced cell death [9]: decreased; Fibrosis in the kidney (SHR [10]): decreased |
| OCCc1cc(-c2ccccc2)ccc1-c1cccc(O)c1 [A56f, 2′-(2-Hydroxyethyl)-1,1′:4′,1″-terphenyl-3-ol] | normal tissue architecture has been restored | Negative impedance responses | decreased | Plasma AST levels (SHR [6]): decreased |
